# Reference: patent US20100061928A1, “LABELLED ANALOGUES OF HALOBENZAMIDES AS RADIOPHARMACEUTICALS” (Institut National De La Sante et De La Recherche Medicale …, priority 2006, published 2010)
# Where a name gives a salt, the structure may show the parent alone.
# What was measured:
# [1] = Elimination of the molecules: cumulative urinary and faecal excretion 0-72 hours; type: in vivo, mouse; conditions: for Faecal elimination 0-72 hours (Faeces) / Urinary and faecal elimination 0-72 hours (Total) / Urinary elimination 0-72 hours (Urine): cumulative excretion 0-72 hours; for Faecal elimination 0-72 hours (Faeces) / Urinary elimination 0-72 hours (Urine): mice in metabolic cages; for Urinary and faecal elimination 0-72 hours (Total): urine + faeces
# [2] = test system: tumour; assay: Dosimetry with regard to the tumour (MIRD programme, extrapolated to ^131I); conditions: for Effective period: extrapolated to 131I labelling; for Biological period: from biodistribution data
# [3] = test system: grafted B16 F0 murine melanoma tumour; assay: Biodistribution of the ^125I-labelled molecules in the melanoma-bearing mouse (autoradiography of whole-body sections); conditions: for tumour concentration, times higher than with BZA: at 72 hours (FIG. 1B); for Biodistribution, Mean, B 16: B 16 tumour
# Description: The distribution of the radioactivity of the various compounds in the body (tumour and other organs) is quantified using an Ambis 4000 image analyzer on sections of whole animals. […] All the in vivo experimentation is carried out within the context defined by French legislation relating to animal experimentation.
# The B16 F0 melanoma cells are provided by the ATCC and cultured in monolayers in culture medium (MEM, Invitrogen) supplemented with 10% foetal calf serum and antibiotics. The cultures are maintained by subculturing after trypsinization. The cells of the first passages are frozen and stored in liquid nitrogen. For the transplanting, the cells in culture at confluence are detached by trypsinization and washed with phosphate buffer (PBS).
# The distribution of the radioactivity present in the sections is analyzed using an AMBIS 4000 analyzer (Scanalytics, CSPI, San Diego, Calif.), which is a proportional counter with a multiwire chamber validated and calibrated beforehand for the monitoring of iodine in the mouse. The measurements require acquisition times of 1000 minutes. […] The value of radioactivity per unit of surface area (cpm/mm^2) is converted to concentration (kBq/g) and expressed as percentage of the injected dose/g of tissue (% ID/g).
compound,measurement,setting,value
"CCN(CC)CCNC(=O)c1cccc2c(=O)c3cc(I)ccc3[nH]c12 [compound 84, N-(2-diethylaminoethyl)-9,10-dihydro-7-iodo-9-oxoacridine-4-carboxamide hydrochloride]",Faecal elimination 0-72 hours (Faeces),[1],38.4%
same,Urinary and faecal elimination 0-72 hours (Total),[1],48.8%
same,Urinary elimination 0-72 hours (Urine),[1],10.4%
same,Effective period,[2],112.5 h
same,Biological period,[2],268.9 hours
same,"tumour concentration, times higher than with BZA",[3],22 times
"CCN(CC)CCNC(=O)c1cnc2cc(I)ccc2n1.Cl.Cl [compound 46, N-(2-diethylaminoethyl)-6-iodoquinoxaline-2-carboxamide dihydrochloride]",Faecal elimination 0-72 hours (Faeces),[1],18.0%
same,Urinary and faecal elimination 0-72 hours (Total),[1],88.2%
same,Urinary elimination 0-72 hours (Urine),[1],70.2%
same,elimination route (in words),"[1]; urinary versus faecal, 0-72 hours",predominantly in the urine
same,Effective period,[2],49.3 h
same,Biological period,[2],66.1 hours
same,"Biodistribution, Mean, B 16",[3]; 1 H,17.00
same,"Biodistribution, Mean, B 16",[3]; 3 H,27.68
same,"Biodistribution, Mean, B 16",[3]; 6 H,40.70
same,"Biodistribution, Mean, B 16",[3]; 24 H,21.67
same,"Biodistribution, Mean, B 16",[3]; 72 H,12.45
same,"Biodistribution, Mean, BM","[3]; BM, 1 H",4.58
same,"Biodistribution, Mean, GB",[3]; 6 H,33.38
same,"Biodistribution, Mean, Ic",[3]; 1 H,15.22
same,"Biodistribution, Mean, Ic",[3]; 3 H,14.63
same,"Biodistribution, Mean, Ic",[3]; 6 H,17.45
same,"Biodistribution, Mean, Sc",[3]; 1 H,24.33
same,"Biodistribution, Mean, Sc",[3]; 3 H,20.33
same,"Biodistribution, Mean, Sc",[3]; 6 H,21.09
same,"Biodistribution, Mean, Sc",[3]; 72 H,2.23
same,"tumour concentration, times higher than with BZA",[3],16 times
same,"Biodistribution, Mean, blood",[3]; 1 H,3.45
same,"Biodistribution, Mean, blood",[3]; 3 H,2.91
same,"Biodistribution, Mean, blood",[3]; 6 H,3.09
same,"Biodistribution, Mean, brain",[3]; 1 H,2.34
same,"Biodistribution, Mean, brain",[3]; 3 H,1.03
same,"tumour concentration, % of the injected dose per gram of tumour",[3]; from the first hour,17 % ID/g
same,"Biodistribution, Mean, kidney",[3]; 1 H,16.46
same,"Biodistribution, Mean, kidney",[3]; 3 H,9.30
same,"Biodistribution, Mean, kidney",[3]; 6 H,7.69
same,"Biodistribution, Mean, liver",[3]; 1 H,13.18
same,"Biodistribution, Mean, liver",[3]; 3 H,8.87
same,"Biodistribution, Mean, liver",[3]; 6 H,7.53
same,"Biodistribution, Mean, liver",[3]; 24 H,1.49
same,"Biodistribution, Mean, lungs",[3]; 1 H,7.83
same,"Biodistribution, Mean, lungs",[3]; 3 H,5.68
same,"Biodistribution, Mean, lungs",[3]; 6 H,4.46
same,"Biodistribution, Mean, muscle",[3]; 1 H,2.04
same,"Biodistribution, Mean, muscle",[3]; 3 H,0.86
same,"Biodistribution, Mean, muscle",[3]; 6 H,0.87
same,"Biodistribution, Mean, pancreas",[3]; 1 H,7.60
same,"Biodistribution, Mean, spleen",[3]; 1 H,14.21
same,"Biodistribution, Mean, spleen",[3]; 3 H,4.69
same,"Biodistribution, Mean, thyroid",[3]; 3 H,39.76
same,"Biodistribution, Mean, thyroid",[3]; 6 H,83.77
same,"Biodistribution, Mean, thyroid",[3]; 24 H,94.22
same,"Biodistribution, Mean, uvea",[3]; 1 H,33.82
same,"Biodistribution, Mean, uvea",[3]; 3 H,24.79
same,"Biodistribution, Mean, uvea",[3]; 6 H,32.30
same,"Biodistribution, Mean, uvea",[3]; 24 H,32.44
same,"Biodistribution, Mean, uvea",[3]; 72 H,25.26
"CCN(CC)CCNC(=O)c1ccc2cncc(I)c2n1.Cl.Cl [compound 142, N-(2-diethylaminoethyl)-8-iodo-1,6-naphthyridine-2-carboxamide dihydrochloride]",Faecal elimination 0-72 hours (Faeces),[1],29.4%
same,Urinary and faecal elimination 0-72 hours (Total),[1],98.3%
same,Urinary elimination 0-72 hours (Urine),[1],68.9%
same,Effective period,[2],26.1 h
same,Biological period,[2],30.2 hours
same,"Biodistribution, Mean, B 16",[3]; 1 H,23.22
same,"Biodistribution, Mean, B 16",[3]; 3 H,13.87
same,"Biodistribution, Mean, B 16",[3]; 6 H,11.42
same,"Biodistribution, Mean, B 16",[3]; 24 H,8.37
same,"Biodistribution, Mean, B 16",[3]; 72 H,3.31
same,"Biodistribution, Mean, GB",[3]; 3 H,41.51
same,"Biodistribution, Mean, GB",[3]; 6 H,28.67
same,"Biodistribution, Mean, Ic",[3]; 1 H,32.83
same,"Biodistribution, Mean, Ic",[3]; 3 H,47.65
same,"Biodistribution, Mean, Ic",[3]; 6 H,43.48
same,"Biodistribution, Mean, Ic",[3]; 24 H,0.82
same,"Biodistribution, Mean, Sc",[3]; 1 H,17.58
same,"Biodistribution, Mean, Sc",[3]; 3 H,9.76
same,"Biodistribution, Mean, Sc",[3]; 6 H,9.17
same,"Biodistribution, Mean, Sc",[3]; 24 H,0.62
same,"Biodistribution, Mean, Sc",[3]; 72 H,2.13
same,tumour concentration (in words),"[3]; ^125I-labelled compound, melanoma-bearing mouse",very high tumour concentration from one hour
same,"Biodistribution, Mean, blood",[3]; 1 H,2.21
same,"Biodistribution, Mean, blood",[3]; 3 H,1.88
same,"Biodistribution, Mean, blood",[3]; 6 H,1.36
same,"Biodistribution, Mean, brain",[3]; 1 H,0.35
same,"Biodistribution, Mean, kidney",[3]; 1 H,4.01
same,"Biodistribution, Mean, kidney",[3]; 3 H,1.51
same,"Biodistribution, Mean, kidney",[3]; 6 H,1.20
same,"Biodistribution, Mean, liver",[3]; 1 H,3.92
same,"Biodistribution, Mean, liver",[3]; 3 H,2.27
same,"Biodistribution, Mean, liver",[3]; 6 H,1.49
same,"Biodistribution, Mean, lungs",[3]; 1 H,2.36
same,"Biodistribution, Mean, lungs",[3]; 3 H,1.87
same,"Biodistribution, Mean, lungs",[3]; 6 H,1.26
same,"Biodistribution, Mean, muscle",[3]; 1 H,0.86
same,"Biodistribution, Mean, muscle",[3]; 3 H,0.43
same,"Biodistribution, Mean, muscle",[3]; 6 H,0.24
same,"Biodistribution, Mean, pancreas",[3]; 1 H,1.78
same,"Biodistribution, Mean, spleen",[3]; 1 H,5.38
same,"Biodistribution, Mean, spleen",[3]; 3 H,0.93
same,"Biodistribution, Mean, thyroid",[3]; 1 H,20.16
same,"Biodistribution, Mean, thyroid",[3]; 3 H,41.44
same,"Biodistribution, Mean, thyroid",[3]; 6 H,56.95
same,"Biodistribution, Mean, thyroid",[3]; 24 H,115.66
same,"Biodistribution, Mean, uvea",[3]; 1 H,24.11
same,"Biodistribution, Mean, uvea",[3]; 3 H,20.30
same,"Biodistribution, Mean, uvea",[3]; 6 H,13.15
same,"Biodistribution, Mean, uvea",[3]; 24 H,10.00
same,"Biodistribution, Mean, uvea",[3]; 72 H,13.06
